PMC12156367, “Synthesis and Biological Evaluation of Seco-Coumarin/Furoxan Hybrids as Potent Anti-Tumor Agents to Overcome Multidrug Resistance via Multiple Mechanisms” (Molecules, 2025)

What was measured:
[1] = Solubility experiment (HPLC) in water/acetonitrile; format: physicochemical; conditions: in water/acetonitrile (table title)
Experimental: Wavelength: 254 nm; flow rate: 1.0 mL/min; column temperature: 25 °C. Mobile phase: Phase A: water, Phase B: acetonitrile (Table 5).
Compounds were dissolved in chromatographic-grade acetonitrile and diluted to concentrations of 200, 100, 50, 25, 12.5, and 6.25 µg/mL. A standard curve was plotted using the peak area under the curve (AUC) versus concentration. […] The supernatant was filtered through an ultrafiltration membrane and then subjected to HPLC analysis. The solubility of the target compound was determined by substituting the AUC of the test compound into the standard curve. Each measurement was performed in triplicate.

[2] = test system: MCF-7/ADR (doxorubicin-resistant human breast cancer cell line); assay: In vitro antiproliferative assay (MTT, 48 h), MCF-7/ADR; format: cell-based; conditions: for Selectivity Ratio IC50(MCF-7)/ IC50(MCF-7/ADR): collateral sensitivity; for IC50: Homo sapiens, NCI/ADR-RES, MTT, 48 h, mean of three determinations
Text: The MDA-MB-468 cell line was procured from the Cell Bank of the Chinese Academy of Sciences. The MCF-7, MCF-7/ADR, MCF-10A, and MDA-MB-231 cell lines were kindly provided by Professor Xianyi Sha (Fudan University, Shanghai, China). The HUVEC cells were kindly provided by Associate Professor Hulie Zeng (Fudan University, Shanghai, China). The MDA-MB-468, MDA-MB-231, MCF-7, MCF-10A, and HUVEC cells were cultivated in DMEM (Service Biotechnology, China) supplemented with 10% FBS (Capricorn Scientific, Germany) and 1% penicillin-streptomycin (Meilunbio, Dalian, China). For the MCF-7/ADR cells, they were cultured in RPMI-1640 (Service Biotechnology, Wuhan, China), containing 10% FBS and 1% penicillin-streptomycin. Additionally, 500 ng/mL of doxorubicin (Sigma-Aldrich, Saint Louis, MO, USA) was incorporated into the RPMI-1640 culture medium to keep drug resistance. All cell lines were cultured in a humidified incubator at 37 °C with a 5% CO2 atmosphere.
Following harvest during logarithmic growth, cells were plated in 96-well culture plates at an initial density of 5000 cells per well. Incubate the plate overnight at 37 °C to allow the cells to adhere. Following the overnight incubation, introduce the compound at the predetermined concentration into each well, and then return the plate to the incubator for an additional 48 h culture period. After the 48 h treatment, carefully aspirate the drug-containing medium from each well. Subsequently, add 150 μL of 0.5 mg/mL MTT (Beyotime, China) solution to each well. Protect the plate from light and incubate it at 37 °C for 4 h to allow the formation of formazan crystals. Finally, add 150 μL of DMSO (Sinopharm, China) to each well and gently mix to ensure complete dissolution of the formazan crystals. The OD value at 570nm was measured using a microplate reader (Thermo Fisher, Waltham, MA, USA). Cell proliferation inhibition was determined using the following formula:Inhibition (%) = [(ODDMSO − ODcompd.)/(ODDMSO − ODblank)] × 100
GraphPad Prism software 9 was used to calculate the IC50 values. The specific calculation process is as follows: Firstly, we input the experimental data into Prism. The data include the concentrations of the experimental compounds and the corresponding biological response values. For instance, in the cell experiment, we recorded the cell viability values at different drug concentrations. Subsequently, we select the option of “Dose–Response–Nonlinear Regression” in the “Analyze” menu for curve fitting. Generally speaking, we use the model of “[Inhibitor] vs. normalized response—Variable slope”. The Prism software fits the data through the nonlinear least squares method and finds the parameter values that can minimize the difference between the model’s predicted values and the actual data. After completing the curve fitting, the software will directly provide the estimated values and confidence intervals of the IC50 value and other relevant parameters. Meanwhile, it will also offer goodness-of-fit indices, such as the correlation coefficient, to evaluate the quality of the fitting. Through the above method, we can accurately calculate the IC50 value, thereby assessing the intensity of the inhibitory or activating effect of the compound on the biological system.

| Structure (SMILES) | Solubility [1] [%] | Selectivity Ratio IC50(MCF-7)/ IC50(MCF-7/ADR) [2] | IC50 [2] [nM] |
| --- | --- | --- | --- |
| COc1cc(OCCCOc2no[n+]([O-])c2S(=O)(=O)c2ccccc2)ccc1C(=O)C=Cc1ccccc1 [Compound 6a, 4-(3-(4-cinnamoyl-3-methoxyphenoxy)propoxy)-3-(phenylsulfonyl)-1,2,5-oxadiazole 2-oxide] | 60.8 ± 7.2 | 432.6 |  |
| N#Cc1ccc(CNC(=O)c2ccc(OCCOc3no[n+]([O-])c3S(=O)(=O)c3ccccc3)cc2O)cc1 [Compound 16e, 4-(2-(4-((4-cyanobenzyl)carbamoyl)-3-hydroxyphenoxy)ethoxy)-3-(phenylsulfonyl)-1,2,5-oxadiazole 2-oxide] | 33.8 ± 5.3 | 561.9 | 5.36 |
| COc1ccc(CCC(=O)c2ccc(OCCCOc3no[n+]([O-])c3S(=O)(=O)c3ccccc3)cc2OC)cc1 [Compound 9f, 4-(3-(3-methoxy-4-(3-(4-methoxyphenyl)propanoyl)phenoxy)propoxy)-3-(phenylsulfonyl)-1,2,5-oxadiazole 2-oxide] | 125 ± 9.2 | 943.2 |  |
| COc1cc(OCCOc2no[n+]([O-])c2S(=O)(=O)c2ccccc2)ccc1C(=O)NCc1ccc(C(F)(F)F)cc1 [Compound 18d, 4-(2-(3-methoxy-4-((4-(trifluoromethyl)benzyl)carbamoyl)phenoxy)ethoxy)-3-(phenylsulfonyl)-1,2,5-oxadiazole 2-oxide] | 26.2 ± 7.2 | 163.0 | 6.56 |
| COc1ccc(/C=C/C(=O)c2ccc(OCCOc3no[n+]([O-])c3S(=O)(=O)c3ccccc3)cc2OC)cc1 [Compound 6c, (E)-4-(2-(3-methoxy-4-(3-(4-methoxyphenyl)acryloyl)phenoxy)ethoxy)-3-(phenylsulfonyl)-1,2,5-oxadiazole 2-oxide] | 37.7 ± 5.2 | 44.2 |  |
| COc1cc(OCCCOc2no[n+]([O-])c2S(=O)(=O)c2ccccc2)ccc1C(=O)CCc1ccccc1 [Compound 9b, 4-(3-(3-methoxy-4-(3-phenylpropanoyl)phenoxy)propoxy)-3-(phenylsulfonyl)-1,2,5-oxadiazole 2-oxide] | 19.4 ± 3.1 | 1152.6 |  |
| COc1cc(OCCOc2no[n+]([O-])c2S(=O)(=O)c2ccccc2)ccc1C(=O)NCc1ccccc1 [Compound 18a, 4-(2-(4-(benzylcarbamoyl)-3-methoxyphenoxy)ethoxy)-3-(phenylsulfonyl)-1,2,5-oxadiazole 2-oxide] | 70.3 ± 6.1 | 47.8 |  |
| O=C(NCc1ccc(F)cc1)c1ccc(OCCOc2no[n+]([O-])c2S(=O)(=O)c2ccccc2)cc1O [Compound 16b, 4-(2-(4-((4-fluorobenzyl)carbamoyl)-3-hydroxyphenoxy)ethoxy)-3-(phenylsulfonyl)-1,2,5-oxadiazole 2-oxide] | 31.6 ± 6.8 | 27.8 |  |
| Nc1ccc(CNC(=O)c2ccc(OCCOc3no[n+]([O-])c3S(=O)(=O)c3ccccc3)cc2O)cc1 [Compound 16c, 4-(2-(4-((4-aminobenzyl)carbamoyl)-3-hydroxyphenoxy)ethoxy)-3-(phenylsulfonyl)-1,2,5-oxadiazole 2-oxide] | 327 ± 11.6 | 95.4 |  |
| COc1cc(OCCCOc2no[n+]([O-])c2S(=O)(=O)c2ccccc2)ccc1C(C)=O [Compound 12b, 4-(3-(4-acetyl-3-methoxyphenoxy)propoxy)-3-(phenylsulfonyl)-1,2,5-oxadiazole 2-oxide] | 384 ± 9.3 | 65.6 |  |
| COc1cccc2c1C(=O)c1c(O)c3c(c(O)c1C2=O)C[C@@](O)(C(=O)CO)C[C@@H]3O[C@H]1C[C@H](N)[C@H](O)[C@H](C)O1 [doxorubicin, reference compound] |  | 0.008 |  |
